Where two headings read alike, the source gives them in different places.
How the values were obtained:
[1] = Percentage bioactive sulfur contained in hydrogen sulfide prodrugs; type: physicochemical
[2] = tested on: superoxide formation and expression of p47phox (a subunit of NOX); settings: Shukla et al., BJU Int. 2009; cited from earlier work
angiogenesis = settings: in the drinking water; via increasing VEGF expression; Givvimani et al. 2011; cited from earlier work
[3] = tested on: pregnant rat uterine contractility; settings: in vitro, Sidhu et al. 2001; cited from earlier work
[4] = comparison substance; cited from earlier work
[5] = tested on: patients with idiopathic oligoasthenozoospermia; assay: Prospective, randomized, double blind study in idiopathic oligoasthenozoospermia, semen analysis; type: in vivo, human; settings: first sample (baseline, before treatment)
Experimental: A prospective, randomized, double blind study evaluated and approved by the Ethics Committee of the Universidad Autónoma de Nuevo León University Hospital (Monterrey, Mexico) with registration number BR09-001 was conducted. The study included patients who attended the Reproductive Biology Clinic of the University Hospital from July 2009 to September 2010 who desired to be pregnant and met the inclusion criteria. Patients between 20 and 45 years of age with a diagnosis of idiopathic oligoasthenozoospermia wishing to participate in the study after signing informed consent were included. The diagnosis of oligoasthenozoospermia was reached by performing two semen analyses on different dates with an interval of three weeks in between. To make the diagnosis, the results of the semen analyses needed to report less than 25% type A sperm motility or less than 50% type A+B sperm motility as detailed in the World Health Organization Laboratory Manual for the Examination of Human Semen and Semen-Cervical Mucus Interaction, 4th ed. New York: Cambridge University Press, 1999. Type A Motility comprised rapid progression; type B motility comprised medium progression; type C mobility comprised slow or clumsy progression; and type D mobility comprised immotile. Oligozoospermia was defined as a concentration of less than 20 million sperm per milliliter, according to the criteria of the World Health Organization. Oligoasthenozoospermia was defined as the presence of oligozoospermia and asthenozoospermia in the same patient. In each semen analysis, morphology was manually assessed using Kruger strict criteria.
Infertile patients with normal findings on semen analysis, patients who were chronic smokers or those who had been taking antioxidants in the last 6 months prior to study entry were excluded. Patients with chronic degenerative diseases such as diabetes or high blood pressure or with hormonal abnormalities were also excluded.
A complete medical history and physical examination was obtained for all patients. All study participants underwent a second semen analysis to confirm the diagnosis after a sexual abstinence of 3 to 5 days. This semen analysis was considered baseline (sample 1). On a second visit this new semen analysis was reviewed to confirm oligoasthenozoospermia and one of the 3 substances to be taken was randomly prescribed for 75 days. The substances given were 1.5 g of hydrogen sulfide prodrug as an antioxidant, 50 mg of resveratrol as an antioxidant, and 1.5 g of microcrystalline cellulose as a placebo.
Randomization of the substance given to each patient was performed by placing in a drawer at random all the containers having exactly the same color, size, and shape with the three separate substances (hydrogen sulfide prodrug, resveratrol, and placebo) without any kind of reference as to the content. […] The attending physician and the patient were unaware of the contents of the container. […] Each patient was asked to take a container at random and the container number was recorded in the patient's medical record. At the end of the study, before statistical analysis, we obtained the relationship between the numbers on the labels and the contents, grouping patients according to the substance. Each patient was given a treatment adherence form (a patient log) in order to count the days of medication and record adverse events, if these occurred, including the type and frequency.
The patients were scheduled one month after starting treatment (third visit) in order to document adverse effects and adherence to treatment.
In the next scheduled consultation (fourth visit), carried out 75 days after starting treatment; adherence was verified and adverse effects were reported. For this visit, the patients presented with 3 to 5 days of sexual abstinence for post-treatment semen analysis (sample 2). […]

[6] = sulfur capable of being converted into hydrogen sulfide in vivo, prior art prodrugs

For CCCc1nn(C)c2c(=O)[nH]c(-c3cc(S(=O)(=O)N4CCN(CC(=O)Oc5ccc(-c6cc(=S)ss6)cc5)CC4)ccc3OCC)nc12 [ACS 6], the “% Bioactive sulfur (w/w)” value [1, 6] is given as 3.5 % (w/w), the “inhibition of expression of p47phox” value [2] is given as “more than sildenafil citrate” and the “inhibition of superoxide formation” value [2] is given as “more than sildenafil citrate”.

For O=C(Cc1ccccc1Nc1c(Cl)cccc1Cl)Oc1ccc(-c2cc(=S)ss2)cc1 [ACS 15], the “% Bioactive sulfur (w/w)” value [1] was 6.3 % (w/w).

In the case of O=C(CCC/C=C\C[C@@H]1[C@@H](CC[C@@H](O)CCc2ccccc2)[C@H](O)C[C@@H]1O)Oc1ccc(-c2cc(=S)ss2)cc1 [ACS 67], the “% Bioactive sulfur (w/w)” value [1] is reported as 5.3 % (w/w).

In the case of COc1ccc2c(c1)c(CC(=O)Oc1ccc(-c3cc(=S)ss3)cc1)c(C)n2C(=O)c1ccc(Cl)cc1 [ATB 343], the “% Bioactive sulfur (w/w)” value [1] is reported as 5.6 % (w/w).

With COc1ccc2cc(C(C)C(=O)Oc3ccc(C(N)=S)cc3)ccc2c1 (stereo not shown) [ATB 346] the “% Bioactive sulfur (w/w)” value [1, 6] was 8.8 % (w/w).

In the case of C1COCCN1.COc1ccc(P(=S)(S)N2CCOCC2)cc1 (stereo not shown) [GYY 4137], the “% Bioactive sulfur (w/w)” value [1] is reported as 8.5 % (w/w).

In the case of [Na+].[Na+].[S-2] [Na2S (anhydrous), Na2S], the “% Bioactive sulfur (w/w)” value [1] is reported as 41 % (w/w).

In the case of [Na+].[SH-] [NaHS (anhydrous), sodium hydrogen sulfide], the angiogenesis (angiogenesis) is given as “augmented angiogenesis” and the uterine spontaneous contractility [3] is given as “significant dose-dependent decreases”.

For [S] [Pure alpha- or beta-elemental sulfur, elemental sulfur], the “solubility in carbon disulfide” value [4] is given as “completely soluble”.

For Oc1ccc(C=Cc2cc(O)cc(O)c2)cc1 [Resveratrol, resveratrol], the “MFR (Mobile Forms Recovery, post sperm capacitation)” value [5] was 0.40 × 10^6, the mean sperm concentration [5] was 10.9 million per milliliter and the “mobile forms recovered (MFR) post-sperm capacitation” value [5] was 0.40 million. For the same compound, the “Motility A + B (%)” value ([5]; group mean) was 14.43%, the “Normal morphology (%)” value ([5]; group mean) was 32.06% and the Sperm concentration ([5]; group mean) was 10.9 × 10^6.

With C[S+]([O-])CCCCN=C=S (stereo not shown) [Sulforaphane] the “% Bioactive sulfur (w/w)” value [1, 6] was 18 % (w/w).

Source: patent US8771755B2, “Preparation and compositions of highly bioavailable zerovalent sulfur and uses thereof” (Nuevas Alternativas Naturales, S.A.P.I. de C.V., priority 2011, dated 2014)
